Results published in patent US5185377A, “Diphenyl compounds which inhibit arachidonic acid metabolism, and their use in pharmaceutical compositions” (Ciba-Geigy Corporation, priority 1990, dated 1993).
Where two headings read alike, the source gives them in different places.

What was measured:
[1] = test system: isolated lung parenchyma strips; test: Arachidonic acid-induced contraction of isolated lung parenchyma strips; assay type: cell-based, guinea-pig; details: for inhibition at 50 µM: 5×10^-5 M
Description: (§1) Testing of antiasthmatic active qualities of triclosan and fenticlor in vitro is carried out on isolated tracheal spirals and lung parenchyma strips of adult guinea-pigs (250-500 g) of both sexes. The tracheal spirals are prepared by the method described by Constantine [J. W. Constantine et al., J. Pharm. Pharmacol. 17, 384 (1965)]. Particular emphasis is placed on complete removal of the surrounding connective tissue and on maintaining the integrity of the epithelium [N. A. Flavahan et al., J. Appl. Physiol. 58, 834 (1985)].
(§2) The lung parenchyma strip is prepared in accordance with the method described by Del Monte [L. Del Monte et a., Naunym-Schmiedebergs Arch. Pharmacol., 338, 417 (1988)]. The contraction of the isolated organs is determined as isotonic measurement of the path under standardised conditions [J. Slapke et al., Biomed. Biochim. Acta 42, 1309 (1983)] in a multiple organ bath.
(§3) A modified Krebs-Henseleit solution (pH=7.4) of the following composition is used for the studies (m×mol 1^-1): NaCl 134.8, KCl 5.9, Tris 10.02, CaCl2 1.82, MgCl2 1.145, glucose 1.11. Air is used for gassing. The bath temperature is 37° C. for the lung parenchyma strips and 35° C. for the tracheal spirals. Conditioning of the preparations is performed several times with 5×10^-4 M acetylcholine to obtain the standardisation value, this substance subsequently being flushed out. In all studies, the contractions are induced by addition of arachidonic acid to the organ bath in increasing concentrations and are measured cumulatively. All the measurements are made in the present of 5 μM indomethacin.

[2] = target: T1, 15-lipoxygenase (Oryctolagus cuniculus, UniProt P12530); test: Inhibition of the activity of 15-lipoxygenase from rabbit reticulocytes; assay type: biochemical
T1 construct: The lipoxygenase from rabbit reticulocytes is obtained in an electrophoretically and immunologically pure form; from tissue; host or cells: rabbit reticulocytes
T1 sequence (P12530 1-663): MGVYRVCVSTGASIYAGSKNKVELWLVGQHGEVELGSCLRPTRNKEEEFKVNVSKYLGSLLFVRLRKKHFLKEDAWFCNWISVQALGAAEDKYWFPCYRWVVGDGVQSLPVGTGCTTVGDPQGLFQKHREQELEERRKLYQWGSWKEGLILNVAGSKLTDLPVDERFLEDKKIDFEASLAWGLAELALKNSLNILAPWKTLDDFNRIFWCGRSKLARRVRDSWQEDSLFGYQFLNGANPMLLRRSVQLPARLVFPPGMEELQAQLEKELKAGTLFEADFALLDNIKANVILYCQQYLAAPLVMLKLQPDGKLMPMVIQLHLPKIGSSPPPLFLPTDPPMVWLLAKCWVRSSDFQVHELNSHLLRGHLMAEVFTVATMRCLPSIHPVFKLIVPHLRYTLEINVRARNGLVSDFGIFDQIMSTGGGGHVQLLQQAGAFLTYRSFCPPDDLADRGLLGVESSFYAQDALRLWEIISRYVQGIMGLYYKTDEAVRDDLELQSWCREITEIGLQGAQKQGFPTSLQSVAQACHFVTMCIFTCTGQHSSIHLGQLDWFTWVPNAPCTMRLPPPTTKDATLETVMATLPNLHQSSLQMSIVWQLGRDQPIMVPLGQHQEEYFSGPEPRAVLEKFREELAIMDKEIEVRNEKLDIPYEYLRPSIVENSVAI
Description: The lipoxygenase from rabbit reticulocytes is obtained in an electrophoretically and immunologically pure form by the method described in the literature [S. M. Rapoport et al., Eur. J. Biochem. 96, 545 (1979]. The lipoxygenase activity is determined at 25° C. via amperometric measurement of the O2 consumption by means of a Clark electrode in the following system: 0.1 M potassium phosphate pH 7.4 containing 0.2% of sodium cholate and 0.53 mM linoleic acid. The enzyme concentration in the measurement bath is 25 nM. The substances to be tested are added as a solution in methylglycol (freshly distilled). […] The enzyme reaction is started by addition of sodium cholate and linoleic acid. The titration curve of the inhibition and from this the concentration needed for 50% inhibition are determined by varying the active ingredient concentration.

[3] = target: T2, prostaglandin H synthase (Ovis aries, UniProt P05979); test: Inhibition of the activity of prostaglandin H synthase from sheep seminal vesicles; assay type: biochemical
T2 construct: H synthase from sheep seminal vesicles is obtained by the method described in the literature; from tissue; host or cells: sheep seminal vesicles
T2 sequence (P05979 25-600): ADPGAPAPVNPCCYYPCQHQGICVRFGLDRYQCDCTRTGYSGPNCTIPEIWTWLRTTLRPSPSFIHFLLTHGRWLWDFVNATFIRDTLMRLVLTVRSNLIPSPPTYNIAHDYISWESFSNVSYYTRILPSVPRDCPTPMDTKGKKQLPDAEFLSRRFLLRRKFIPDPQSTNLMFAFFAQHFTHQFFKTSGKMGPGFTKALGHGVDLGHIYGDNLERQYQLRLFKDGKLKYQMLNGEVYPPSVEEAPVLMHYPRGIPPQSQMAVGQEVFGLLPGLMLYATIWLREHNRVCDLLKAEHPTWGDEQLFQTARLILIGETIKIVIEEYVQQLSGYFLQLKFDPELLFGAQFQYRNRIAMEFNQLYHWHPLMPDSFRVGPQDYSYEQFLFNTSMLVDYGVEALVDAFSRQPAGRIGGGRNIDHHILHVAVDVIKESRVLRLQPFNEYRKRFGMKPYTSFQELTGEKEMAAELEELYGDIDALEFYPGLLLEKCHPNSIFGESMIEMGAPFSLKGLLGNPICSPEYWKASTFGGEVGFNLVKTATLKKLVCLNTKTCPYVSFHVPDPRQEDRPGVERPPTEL
Description: Prostaglanding H synthase from sheep seminal vesicles is obtained by the method described in the literature by Van der Oudaraa, F. J. G.; Buytenhek, M.; Methods Enzymol. 86, 60 (1982).
The enzyme activity is determined at 25° C. by polargraphic measurement of the oxygen consumption with a Clark electrode.
The measurement batch consists of […] ml^-1 of prostaglandin H synthase in 0.1 M Tris-HCl buffer pH=8.0, 5 mM tryptophan, 1 μM haemin and 0.124 mM arachidonic acid. The substances to be tested are dissolved in methylglycol and incubated with the enzyme in the absence of arachidonic acid for 10 minutes at 25° C. The enzyme reaction is started with arachidonic acid.
The titration curve of the inhibition and from this the concentration needed for 50% inhibition are determined by varying the active ingredient concentration.

[4] = test system: arachidonic acid-induced bronchoconstriction; test: Arachidonic acid-induced bronchoconstriction in the guinea-pig; assay type: in vivo
Description: A bronchospasm is induced in non-sensitised guinea-pigs in the same experimental design as in Example 2 by intratracheal instillation of 2 mg/kg of Na arachidonate solution in phosphate buffer pH=7.4 [G. Becher et al., Z. Erkrankg. Atm.-org. 171, 85 (1988)].

[5] = test system: ovalbumin-induced bronchoconstriction; test: Ovalbumin-induced bronchoconstriction in the ovalbumin-sensitised guinea-pig; assay type: in vivo
Description: Guinea-pigs are sensitised i.p. with 10 μg of ovalbumin and 100 mg of aluminium hydroxide in 0.5 ml of isotonic saline solution by the method of Anderson [P. Anderson, Brit. J. Pharmacol. 77, 301 (1982)]. After 14 days, the conscious animals are given a booster by inhalation of a 0.1% strength atomised ovalbumin solution. Only animals with a positive reaction are used for comparison from the fourth day after the booster. Guinea-pigs with a body weight of 450-550 g are were anaesthetised with 1.3 g/kg of ethylurethane i.p. Thereafter, a cannula is connected to the trachea. The animals are relaxed with 0.2 mg/kg pancuronium bromide i.v. and respirated in a tank respirator (f=20/min, p.=3 pPa, I:E=1:1). The animals breath in air from the room by the tracheal cannula led to the outside. The tidal volume VT is measured pneumota- chographically. 1 mg/kg of ovalbumin in 300 μl of water is instilled intratracheally to induce the spasm [G. Becher et al., Z. Erkrankg., Arm.-org. 166, 223 (1986)].
Statistical analysis of the results is carried out with the parameter-free U-test according to Mann and Whitney, p.≤0.05.

[6] = literature statement; G. B. Kasting et al. cited for the non-steroidal drugs; cited from earlier work
[7] = test system: isolated tracheal spirals; test: Arachidonic acid-induced contraction of isolated tracheal spirals; assay type: cell-based, guinea-pig; details: Cavia porcellus, average, 35° C., 5 μM indomethacin present, read-out: ED50 (concentration-related contraction)
Description: as §1, §2
as §3, with “Conditioning of the preparations is performed several times with 5×10^-4 M acetylcholine to obtain the standardisation value, this substance subsequently being flushed out.” left out, “All the measurements are made in the present of 5 μM indomethacin.” left out

[8] = Cavia porcellus, 5 μM indomethacin
[9] = 100 mg/kg p.o. 2 hours before, Na arachidonate 2 mg/kg intratracheally
[10] = 100 mg/kg p.o. 2 hours before, ovalbumin 1 mg/kg intratracheally

Compound | IC50 [2] | IC50 [3] | also measured
CC(Cc1ccc(O)c(O)c1)C(C)Cc1ccc(O)c(O)c1 (centres unmarked) [nordihydroguarjiaretic acid] |  |  | inhibition at 50 µM [1, 8]: 50%
Oc1c(Cl)cc(Br)cc1Cc1cc(Br)cc(Cl)c1O [2,2'-Dihydroxy-3,3'-dichloro-5,5'-dibromo-diphenylmethane] | 3.8 µM | 28 µM | 
NC1=NN(c2cccc(C(F)(F)F)c2)CC1 [BW 755 C] |  |  | inhibition at 50 µM [1, 8]: 50%
Oc1ccc(Cl)cc1Sc1cc(Cl)ccc1O [fenticlor, 2,2'-dihydroxy-5,5'-dichloro-diphenyl sulfide] | 1.4 µM | 15.5 µM | inhibition of the maximum bronchospasm [4, 9]: 16.5%; time to return to the starting volume (tidal volume) [4, 9]: 25 min; inhibition of the arachidonic acid-induced bronchoconstrictive reaction ([4]; fenticlor 100 mg/kg p.o. 2 hours before, U-test p≤0.05): inhibited significantly (parameter-free U-test according to Mann and Whitney, p≤0.05) from the fifth minute; inhibition of the maximum bronchospasm [5, 10]: 60%; time to return to the starting volume (tidal volume) [5, 10]: 25 min; reduction of the allergic reaction (bronchoconstriction) ([5]; fenticlor 100 mg/kg p.o. 2 hours before, in comparison with controls, p≤0.05): reduced significantly; IC50 ([1]; Cavia porcellus, read-out: ID50): 5 µM
Oc1c(Br)cc(Br)cc1Cc1cc(Br)cc(Br)c1O [2,2'-Dihydroxy-3,3',5,5'-tetrabromo-diphenylmethane] | 2.8 µM | 45 µM | 
CC(C(=O)O)c1cccc(C(=O)c2ccccc2)c1 (centres unmarked) [ketoprofen] |  |  | skin penetration [6]: inadequate skin penetration
CN1CCC(=C2c3ccccc3CC(=O)c3sccc32)CC1 [ketotifen] |  |  | inhibition at 1 µM ([1]; Cavia porcellus, 10^-6 M, 5 μM indomethacin): 25%
Cc1cc(Cl)cc(Cc2ccccc2)c1O [4-Chloro-2-methyl-6-benzylphenol] | 2.5 µM | 30 µM | 
COc1ccc2c(c1)c(CC(=O)O)c(C)n2C(=O)c1ccc(Cl)cc1 [indomethacin] |  |  | skin penetration [6]: inadequate skin penetration
Cc1cc(Cc2ccccc2)cc(Cl)c1O [2-Chloro-6-methyl-4-benzylphenol] | 28 µM | 35 µM | 
Oc1c(Cl)cc(Cl)cc1Cc1cc(Cl)cc(Cl)c1O [2,2'-Dihydroxy-3,3',5,5'-tetrachloro-diphenylmethane] |  |  | IC50 ([2]; 25° C., pH 7.4, 0.53 mM linoleic acid, enzyme 25 nM, read-out: 15-LOX IC50): 9.5 µM; IC50 ([3]; 25° C., pH=8.0, 0.124 mM arachidonic acid, 10 minutes preincubation, read-out: PG H synthase IC50): 60 µM
O=C(O)Cc1ccccc1Nc1c(Cl)cccc1Cl [diclofenac] |  |  | skin penetration [6]: inadequate skin penetration
CCCCC/C=C\C/C=C\C/C=C\C/C=C\CCCC(=O)O [Arachidonic acid, arachidonic acid] |  |  | EC50 [7]: 50 µM; EC50 ([1]; Cavia porcellus, read-out: ED50 (concentration-related contraction)): 100 µM
Oc1cc(Cl)ccc1Oc1ccc(Cl)cc1Cl [triclosan, 2,4,4'-trichloro-2'-hydroxy-diphenyl ether] | 2.4 µM | 23 µM | inhibition of the arachidonic acid-induced contraction ([1]; 10^-6 M triclosan, arachidonic acid 10^-7 -10^3 M (so in the source), 5 μM indomethacin): complete inhibition; relaxation on isolated lung parenchyma strips ([1]; triclosan concentrations of >10^-6 M): pronounced dose-related relaxation
Oc1c(Br)cc(Cc2cc(Br)c(O)c(Br)c2)cc1Br [4,4'-Dihydroxy-3,3',5,5'-tetrabromo-diphenylmethane] | 5 µM | 17 µM | 
Oc1c(Cl)cc(Cc2cc(Cl)c(O)c(Br)c2)cc1Br [4,4'-Dihydroxy-3,3'-dibromo-5,5'-dichloro-diphenylmethane] | 10.5 µM | 180 µM | 
Oc1c(Cl)cc(Cl)c(Cl)c1Cc1c(O)c(Cl)cc(Cl)c1Cl [2,2'-Dihydroxy-3,3',5,5',6,6'-hexachloro-diphenylmethane] | 3.5 µM | 17 µM | 
Oc1ccc(Cl)cc1Cc1ccccc1 [chlorophene, 2-Benzyl-4-chlorophenol] | 2 µM | 40 µM | 
Oc1c(Cl)cc(Cl)c(O)c1Cc1c(O)c(Cl)cc(Cl)c1O [2,2'6,6'-Tetrahydroxy-3,3',5,5'-tetrachloro-diphenylmethane] | 3.6 µM | 17 µM | 
